Columns and labels:
Type in all cases: in vivo
corn (Zea mays) = assay: Test A postemergence application, visual injury rating; settings: 0 to 100 scale, 0 no effect, 100 complete control
In short: (§1)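 Seeds sown in a loam soil–sand blend received a directed preemergence soil spray of test chemical in a non-phytotoxic solvent mixture with surfactant. Postemergence plants were sprayed at 2 to 10 cm, one- to two-leaf stage. After approximately 10 d in greenhouse, injury was visually rated 0 (no effect) to 100 (complete control) against untreated controls.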

[1] = system: blackgrass (Alopecurus myosuroides); assay: as above; settings: 0 to 100 scale, 0 no effect, 100 complete control
In short: as §1

[2] = system: wheat (Triticum aestivum); assay: as above; settings: 0 to 100 scale, 0 no effect, 100 complete control
In short: as §1

[3] = system: ragweed (common ragweed, Ambrosia elatior); assay: as above; settings: 0 to 100 scale, 0 no effect, 100 complete control
In short: as §1

kochia (Kochia scoparia) [4] = assay: as above; settings: 0 to 100 scale, 0 no effect, 100 complete control
In short: as §1

[5] = system: pigweed (Amaranthus retroflexus); assay: as above; settings: 0 to 100 scale, 0 no effect, 100 complete control
In short: as §1

[6] = system: barnyardgrass (Echinochloa crus-galli); assay: as above; settings: 0 to 100 scale, 0 no effect, 100 complete control
In short: as §1

[7] = system: foxtail, giant (giant foxtail, Setaria faberii); assay: as above; settings: 0 to 100 scale, 0 no effect, 100 complete control
In short: as §1

[8] = system: galium (catchweed bedstraw, Galium aparine); assay: as above; settings: 0 to 100 scale, 0 no effect, 100 complete control
In short: as §1

[9] = system: ryegrass, It. (Italian ryegrass, Lolium multiflorum); assay: as above; settings: 0 to 100 scale, 0 no effect, 100 complete control
In short: as §1

[10] = system: ragweed (common ragweed, Ambrosia elatior); assay: Test A preemergence, directed soil spray, visual injury rating; settings: 0 is no effect, 100 is complete control
In short: as §1

kochia (Kochia scoparia) [11] = assay: as above; settings: 0 is no effect, 100 is complete control
In short: as §1

[12] = system: pigweed (Amaranthus retroflexus); assay: as above; settings: 0 is no effect, 100 is complete control
In short: as §1

[13] = system: barnyardgrass (Echinochloa crus-galli); assay: as above; settings: 0 is no effect, 100 is complete control
In short: as §1

[14] = system: foxtail, giant (giant foxtail, Setaria faberii); assay: as above; settings: 0 is no effect, 100 is complete control
In short: as §1

[15] = system: ryegrass, It. (Italian ryegrass, Lolium multiflorum); assay: as above; settings: 0 is no effect, 100 is complete control
In short: as §1

rice (Oryza sativa) = assay: Test B flooded paddy test, visual rating; settings: Flood, 250 g ai/ha, applied to paddy water, rated after 13 to 15 d
Protocol: (§2) Plant species in the flooded paddy test selected from rice (Oryza sativa), sedge, umbrella (small-flower umbrella sedge, Cyperus difformis), ducksalad (Heteranthera limosa), and barnyardgrass (Echinochloa crus-galli) were grown to the 2-leaf stage for testing. At time of treatment, test pots were flooded to 3 cm above the soil surface, treated by application of test compounds directly to the paddy water, and then maintained at that water depth for the duration of the test. Treated plants and controls were maintained in a greenhouse for 13 to 15 d, after which time all species were compared to controls and visually evaluated. Plant response ratings, summarized in Table B, are based on a scale of 0 to 100 where 0 is no effect and 100 is complete control. A dash (-) response means no test result.

[16] = system: barnyardgrass (Echinochloa crus-galli); assay: Test B flooded paddy test, visual rating; settings: Flood, 250 g ai/ha, applied to paddy water, rated after 13 to 15 d
Protocol: as §2

[17] = system: sedge, umbrella (small-flower umbrella sedge, Cyperus difformis); assay: Test B flooded paddy test, visual rating; settings: Flood, 250 g ai/ha, applied to paddy water, rated after 13 to 15 d
Protocol: as §2

[18] = system: ducksalad (Heteranthera limosa); assay: Test B flooded paddy test, visual rating; settings: Flood, 250 g ai/ha, applied to paddy water, rated after 13 to 15 d
Protocol: as §2

Row | SMILES | Corn plant response rating (corn (Zea mays); 31 g ai/ha) | Corn plant response rating (corn (Zea mays); 125 g ai/ha) | Blackgrass plant response rating ([1]; 31 g ai/ha) | Blackgrass plant response rating ([1]; 125 g ai/ha) | Wheat plant response rating ([2]; 31 g ai/ha) | Wheat plant response rating ([2]; 125 g ai/ha) | Ragweed plant response rating ([3]; 31 g ai/ha) | Ragweed plant response rating ([3]; 125 g ai/ha) | Kochia plant response rating (kochia (Kochia scoparia) [4]; 31 g ai/ha) | Kochia plant response rating (kochia (Kochia scoparia) [4]; 125 g ai/ha) | Pigweed plant response rating ([5]; 31 g ai/ha) | Pigweed plant response rating ([5]; 125 g ai/ha) | Barnyardgrass plant response rating ([6]; 31 g ai/ha) | Barnyardgrass plant response rating ([6]; 125 g ai/ha) | Foxtail, Giant plant response rating ([7]; 31 g ai/ha) | Foxtail, Giant plant response rating ([7]; 125 g ai/ha) | Galium plant response rating ([8]; 31 g ai/ha) | Galium plant response rating ([8]; 125 g ai/ha) | Ryegrass, It. plant response rating ([9]; 31 g ai/ha) | Ryegrass, It. plant response rating ([9]; 125 g ai/ha) | also measured
1 | Cc1cc2c(Cl)ccc(-c3c(OC(=O)c4ccccc4)c(C)nn(C)c3=O)c2o1 [Compound 39] | 0 | 0 | 0 | 20 | 0 | 0 | 0 | 10 | 0 | 0 | 0 | 0 | 0 | 10 | 0 | 10 | 30 | 90 | 20 | 30 | Plant response rating (0 to 100 scale), Ragweed ([10]; 31 g ai/ha): 0; Plant response rating (0 to 100 scale), Ragweed ([10]; 125 g ai/ha): 0; Plant response rating (0 to 100 scale), Kochia (kochia (Kochia scoparia) [11]; 31 g ai/ha): 0; Plant response rating (0 to 100 scale), Kochia (kochia (Kochia scoparia) [11]; 125 g ai/ha): 0; Plant response rating (0 to 100 scale), Pigweed ([12]; 31 g ai/ha): 0; Plant response rating (0 to 100 scale), Pigweed ([12]; 125 g ai/ha): 0; Plant response rating (0 to 100 scale), Barnyardgrass ([13]; 31 g ai/ha): 0; Plant response rating (0 to 100 scale), Barnyardgrass ([13]; 125 g ai/ha): 0; Plant response rating (0 to 100 scale), Foxtail, Giant ([14]; 31 g ai/ha): 0; Plant response rating (0 to 100 scale), Foxtail, Giant ([14]; 125 g ai/ha): 0; Plant response rating (0 to 100 scale), Ryegrass, It. ([15]; 31 g ai/ha): 10; Plant response rating (0 to 100 scale), Ryegrass, It. ([15]; 125 g ai/ha): 50; Rice plant response rating (0 to 100 scale, 0 is no effect, 100 is complete control) (rice (Oryza sativa)): 0; Barnyardgrass plant response rating (0 to 100 scale, 0 is no effect, 100 is complete control) [16]: 0; Sedge, Umbrella plant response rating (0 to 100 scale, 0 is no effect, 100 is complete control) [17]: 0; Ducksalad plant response rating (0 to 100 scale, 0 is no effect, 100 is complete control) [18]: 50
2 | CCC(=O)Oc1c(C)nn(C)c(=O)c1-c1cccc2cc(C)oc12 [Compound 26] | 0 | 0 | 0 | 20 | 0 | 0 | 0 | 30 | 20 | 20 | 30 | 40 | 0 | 10 | 0 | 30 | 70 | 90 | 50 | 80 | Plant response rating (0 to 100 scale), Ragweed ([10]; 31 g ai/ha): 0; Plant response rating (0 to 100 scale), Ragweed ([10]; 125 g ai/ha): 10; Plant response rating (0 to 100 scale), Kochia (kochia (Kochia scoparia) [11]; 31 g ai/ha): 0; Plant response rating (0 to 100 scale), Kochia (kochia (Kochia scoparia) [11]; 125 g ai/ha): 30; Plant response rating (0 to 100 scale), Pigweed ([12]; 31 g ai/ha): 0; Plant response rating (0 to 100 scale), Pigweed ([12]; 125 g ai/ha): 10; Plant response rating (0 to 100 scale), Barnyardgrass ([13]; 31 g ai/ha): 0; Plant response rating (0 to 100 scale), Barnyardgrass ([13]; 125 g ai/ha): 0; Plant response rating (0 to 100 scale), Foxtail, Giant ([14]; 31 g ai/ha): 0; Plant response rating (0 to 100 scale), Foxtail, Giant ([14]; 125 g ai/ha): 0; Plant response rating (0 to 100 scale), Ryegrass, It. ([15]; 31 g ai/ha): 10; Plant response rating (0 to 100 scale), Ryegrass, It. ([15]; 125 g ai/ha): 80; Rice plant response rating (0 to 100 scale, 0 is no effect, 100 is complete control) (rice (Oryza sativa)): 0; Barnyardgrass plant response rating (0 to 100 scale, 0 is no effect, 100 is complete control) [16]: 0; Sedge, Umbrella plant response rating (0 to 100 scale, 0 is no effect, 100 is complete control) [17]: 0; Ducksalad plant response rating (0 to 100 scale, 0 is no effect, 100 is complete control) [18]: 0
3 | COC(=O)Oc1c(C)nn(C)c(=O)c1-c1cccc2cc(C)oc12 [Compound 28] | 0 | 0 | 0 | 30 | 0 | 0 | 20 | 60 | 0 | 40 | 10 | 40 | 0 | 10 | 0 | 20 | 40 | 80 | 30 | 60 | Plant response rating (0 to 100 scale), Ragweed ([10]; 31 g ai/ha): 0; Plant response rating (0 to 100 scale), Ragweed ([10]; 125 g ai/ha): 30; Plant response rating (0 to 100 scale), Kochia (kochia (Kochia scoparia) [11]; 31 g ai/ha): 0; Plant response rating (0 to 100 scale), Kochia (kochia (Kochia scoparia) [11]; 125 g ai/ha): 20; Plant response rating (0 to 100 scale), Pigweed ([12]; 31 g ai/ha): 0; Plant response rating (0 to 100 scale), Pigweed ([12]; 125 g ai/ha): 0; Plant response rating (0 to 100 scale), Barnyardgrass ([13]; 31 g ai/ha): 0; Plant response rating (0 to 100 scale), Barnyardgrass ([13]; 125 g ai/ha): 0; Plant response rating (0 to 100 scale), Foxtail, Giant ([14]; 31 g ai/ha): 0; Plant response rating (0 to 100 scale), Foxtail, Giant ([14]; 125 g ai/ha): 0; Plant response rating (0 to 100 scale), Ryegrass, It. ([15]; 31 g ai/ha): 20; Plant response rating (0 to 100 scale), Ryegrass, It. ([15]; 125 g ai/ha): 70; Rice plant response rating (0 to 100 scale, 0 is no effect, 100 is complete control) (rice (Oryza sativa)): 0; Barnyardgrass plant response rating (0 to 100 scale, 0 is no effect, 100 is complete control) [16]: 0; Sedge, Umbrella plant response rating (0 to 100 scale, 0 is no effect, 100 is complete control) [17]: 0; Ducksalad plant response rating (0 to 100 scale, 0 is no effect, 100 is complete control) [18]: 0
4 | Cc1cc2c(-c3c(OC(=O)c4ccccc4)c(C)nn(C)c3=O)ccc(Cl)c2o1 [Compound 44] | 0 | 0 | 0 | 0 | 0 | 0 | 0 | 0 | 0 | 0 | 0 | 0 | 0 | 0 | 0 | 0 | 0 | 0 | 0 | 0 | Plant response rating (0 to 100 scale), Ragweed ([10]; 31 g ai/ha): 0; Plant response rating (0 to 100 scale), Ragweed ([10]; 125 g ai/ha): 0; Plant response rating (0 to 100 scale), Kochia (kochia (Kochia scoparia) [11]; 31 g ai/ha): 0; Plant response rating (0 to 100 scale), Kochia (kochia (Kochia scoparia) [11]; 125 g ai/ha): 0; Plant response rating (0 to 100 scale), Pigweed ([12]; 31 g ai/ha): 0; Plant response rating (0 to 100 scale), Pigweed ([12]; 125 g ai/ha): 0; Plant response rating (0 to 100 scale), Barnyardgrass ([13]; 31 g ai/ha): 0; Plant response rating (0 to 100 scale), Barnyardgrass ([13]; 125 g ai/ha): 0; Plant response rating (0 to 100 scale), Foxtail, Giant ([14]; 31 g ai/ha): 0; Plant response rating (0 to 100 scale), Foxtail, Giant ([14]; 125 g ai/ha): 0; Plant response rating (0 to 100 scale), Ryegrass, It. ([15]; 31 g ai/ha): 0; Plant response rating (0 to 100 scale), Ryegrass, It. ([15]; 125 g ai/ha): 20; Rice plant response rating (0 to 100 scale, 0 is no effect, 100 is complete control) (rice (Oryza sativa)): 0; Barnyardgrass plant response rating (0 to 100 scale, 0 is no effect, 100 is complete control) [16]: 0; Sedge, Umbrella plant response rating (0 to 100 scale, 0 is no effect, 100 is complete control) [17]: 0; Ducksalad plant response rating (0 to 100 scale, 0 is no effect, 100 is complete control) [18]: 0
